In test [1] the target is T1, α5-containing GABAA receptor (Rattus norvegicus, UniProt P18508+P19969).
T1 construct: occupancy in the hippocampus (a region of high GABAAα5 receptor density); from tissue; host or cells: rat brain in vivo; hippocampus versus cerebellum
It counts as in vivo. As to conditions: i.v.; for effect on Ro 15-4513 binding in hippocampus: 0.01-10 mg/kg.

Test [2] relates to α5-containing GABAA receptor. It is filed as in vivo, rat. As to conditions: 0.01-10 mg/kg, i.v.
Another test relates to aged-impaired (AI) rats. Description: Radial Arm Maze (RAM) behavioral task, four-hour delay (Example 108). It is filed as in vivo, rat.

Some results are limits rather than exact numbers.

T1 sequence (P19969 32-464 limits assumed): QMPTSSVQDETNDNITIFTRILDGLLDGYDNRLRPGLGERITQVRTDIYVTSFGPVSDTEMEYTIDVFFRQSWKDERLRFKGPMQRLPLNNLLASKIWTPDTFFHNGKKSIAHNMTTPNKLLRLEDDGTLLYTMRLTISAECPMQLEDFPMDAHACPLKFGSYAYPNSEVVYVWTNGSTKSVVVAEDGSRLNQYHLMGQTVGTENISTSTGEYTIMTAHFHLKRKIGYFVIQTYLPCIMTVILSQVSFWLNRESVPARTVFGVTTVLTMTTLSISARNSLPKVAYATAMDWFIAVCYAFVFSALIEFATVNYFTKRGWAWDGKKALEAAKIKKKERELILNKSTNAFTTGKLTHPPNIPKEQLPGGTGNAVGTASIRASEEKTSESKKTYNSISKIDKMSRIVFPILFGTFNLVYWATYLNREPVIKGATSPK
T1 sequence (P18508 39-466): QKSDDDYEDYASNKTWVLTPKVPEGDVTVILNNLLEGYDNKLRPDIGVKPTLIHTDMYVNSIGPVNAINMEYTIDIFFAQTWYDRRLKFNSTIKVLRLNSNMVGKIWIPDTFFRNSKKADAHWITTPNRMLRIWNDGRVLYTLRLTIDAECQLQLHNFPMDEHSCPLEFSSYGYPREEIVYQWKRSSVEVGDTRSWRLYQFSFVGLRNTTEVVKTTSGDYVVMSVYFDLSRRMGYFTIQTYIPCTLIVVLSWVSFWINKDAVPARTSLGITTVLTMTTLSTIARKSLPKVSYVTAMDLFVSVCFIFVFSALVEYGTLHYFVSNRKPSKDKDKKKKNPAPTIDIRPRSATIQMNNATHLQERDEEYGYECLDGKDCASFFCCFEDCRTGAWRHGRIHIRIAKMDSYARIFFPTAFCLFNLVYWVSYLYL
Description for aged-impaired (AI) rats: The same experiment was repeated using the same vehicle control and doses of ethyl 3-methoxy-7-methyl-9H-benzo[f]imidazo[1,5-a][1,2,4]triazolo[4,3-d][1,4]diazepine-10-carboxylate, where the vehicle control was tested 5 times, the 3 mg/kg dose of ethyl 3-methoxy-7-methyl-9H-benzo[f]imidazo[1,5-a][1,2,4]triazolo[4,3-d][1,4]diazepine-10-carboxylate was tested 4 times, and the other doses of ethyl 3-methoxy-7-methyl-9H-benzo[f]imidazo[1,5-a][1,2,4]triazolo[4,3-d][1,4]diazepine-10-carboxylate were tested twice.
Parametric statistics (paired t-tests) was used to compare the retention test performance of the AI rats in the four-hour delay version of the RAM task in the context of different doses of ethyl 3-methoxy-7-methyl-9H-benzo[f]imidazo[1,5-a][1,2,4]triazolo[4,3-d][1,4]diazepine-10-carboxylate and vehicle control (see FIG. 5).

Turning to `CCOC(=O)c1ncn2c1Cn1c(C)nnc1-c1cc(OC)ccc1-2` [Ethyl 3-methoxy-7-methyl-9H-benzo[f]imidazo[1,5-a][1,2,4]tri], the “effect on Ro 15-4513 binding in hippocampus” value in test [1] is listed as “blocked the binding”. For the same compound, in test [2], the “effect on cerebellum levels of Ro 15-4513” value is on record as “did not affect binding”.
As for `CCOC(=O)c1ncn2c1Cn1c(C)nnc1-c1cc(OC)ccc1-2` [ethyl 3-methoxy-7-methyl-9H-benzo[f]imidazo[1,5-a][1,2,4]tri], the “memory performance relative to vehicle control” value with aged-impaired (AI) rats (3 mg/kg, t(7)=4.13, p=0.004, or t(7)=3.08, p=0.018) is “significantly improved memory performance”; in the test with aged-impaired (AI) rats (10 mg/kg, t(7)=2.82, p=0.026) it was “significantly improved memory performance”. For the same compound, in test [1], the “effect on Ro 15-4513 binding in hippocampus” value is given as “reduced Ro 15-4513 binding in hippocampus”. In test [1] (10 mg/kg), the “α5-containing GABAA receptor occupancy” value is greater than 90%. Moreover, the “effect on cerebellum levels of Ro 15-4513” value in test [2] was “without affecting”.
